Measured values reported in ChEMBL document CHEMBL1921788, “Development of melanoma-targeted polymer micelles by conjugation of a melanocortin 1 receptor (MC1R) specific ligand” (J Med Chem, 2011).
Non-standard residues stand in square brackets, D forms with d. Residues, ends and D or L forms follow the SMILES beside them. d2Nal = N[C@H](Cc1ccc2ccccc2c1)C(=O)O; Nle = CCCC[C@H](N)C(=O)O

Test system: HEK293
Test: Selectivity ratio of Ki for human MC5 receptor expressed in human HEK293 cells to Ki for human MC1 receptor expressed in human HCT116 cells
Type: cell-based

In the case of `CCCC[C@H](NC(=O)[C@@H](NC(=O)[C@@H](N)Cc1ccc(O)cc1)C(C)C)C(=O)NCC(=O)N[C@@H](Cc1cnc[nH]1)C(=O)N[C@H](Cc1ccc2ccccc2c1)C(=O)N[C@@H](CCCNC(=N)N)C(=O)N[C@H](Cc1ccccc1)C(=O)N[C@@H](CC(=O)O)C(=O)N[C@@H](CCCNC(=N)N)C(=O)N[C@@H](Cc1ccccc1)C(=O)NCC(N)=O` (H-YV[Nle]GH[d2Nal]R[dF]DRFG-NH2), the Ratio Ki is reported as 0.13.
